# Source: ChEMBL document CHEMBL1201862, “PubChem BioAssay data set” (2004)
#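 Five compound concentrations were applied to cells in 96-well plates for 48 hours; endpoints were derived by simple linear interpolation of the resulting dose-response curve. GI50 = concentration required for 50% inhibition of growth.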 Active and inactive are the calls of the source. No stated cut-off is given here; in the data, active = GI50 up to about 1.1 µM and inactive = higher.
# Assays:
# Experiment in all cases: inhibition of tumour cell growth, NCI panel, 48 h
# PC-3 = tested on: PC-3
# K562 = tested on: K562
# MDA-N = tested on: MDA-N
# OVCAR-8 = tested on: OVCAR-8
# MDA-MB-435 = tested on: MDA-MB-435
# MOLT-4 = tested on: MOLT-4
# KM12 = tested on: KM12
# M14 = tested on: M14
# BT-549 = tested on: BT-549
# NCI-H23 = tested on: NCI-H23
# HCT-15 = tested on: HCT-15
# T47D = tested on: T47D
# SW-620 = tested on: SW-620
# UO-31 = tested on: UO-31
# OVCAR-5 = tested on: OVCAR-5
# Hs-578T = tested on: Hs-578T
# OVCAR-4 = tested on: OVCAR-4
SMILES,GI50 (PC-3),GI50 (K562),GI50 (MDA-N),GI50 (OVCAR-8),GI50 (MDA-MB-435),GI50 (MOLT-4),GI50 (KM12),GI50 (M14),GI50 (BT-549),GI50 (NCI-H23),GI50 (HCT-15) [µM],GI50 (T47D),GI50 (SW-620),GI50 (UO-31),GI50 (OVCAR-5),GI50 (Hs-578T),GI50 (OVCAR-4)
CC1CCCCNC1=S (stereo not drawn),> 10 µM (inactive),> 10 µM (inactive),> 10 µM (inactive),> 10 µM (inactive),> 10 µM (inactive),> 10 µM (inactive),> 10 µM (inactive),> 10 µM (inactive),> 10 µM (inactive),> 10 µM (inactive),> 10,> 10 µM (inactive),> 10 µM (inactive),> 10 µM (inactive),> 10 µM (inactive),> 10 µM (inactive),
NC(CCCCNC(=O)C(Cc1ccccc1)NC(=O)OCc1ccccc1)C(=O)NC(CCCCNC(=O)C(Cc1ccccc1)NC(=O)OCc1ccccc1)C(=O)NC(CCCCNC(=O)C(Cc1ccccc1)NC(=O)OCc1ccccc1)C(=O)NC(CCCCNC(=O)C(Cc1ccccc1)NC(=O)OCc1ccccc1)C(=O)NC(CCCCNC(=O)C(Cc1ccccc1)NC(=O)OCc1ccccc1)C(=O)NC(CCCCNC(=O)C(Cc1ccccc1)NC(=O)OCc1ccccc1)C(=O)O (stereo not drawn),> 100 µM (inactive),> 100 µM (inactive),> 100 µM (inactive),> 100 µM (inactive),> 100 µM (inactive),> 100 µM (inactive),,> 100 µM (inactive),> 100 µM (inactive),> 100 µM (inactive),> 100,> 100 µM (inactive),> 100 µM (inactive),> 100 µM (inactive),> 100 µM (inactive),,> 100 µM (inactive)
O=P(O)(Cc1ccccc1)c1ccccc1-c1ccccc1,> 100 µM (inactive),> 100 µM (inactive),> 100 µM (inactive),> 100 µM (inactive),,> 100 µM (inactive),77.3 µM (inactive),> 100 µM (inactive),> 100 µM (inactive),> 100 µM (inactive),> 100,> 100 µM (inactive),> 100 µM (inactive),> 100 µM (inactive),> 100 µM (inactive),> 100 µM (inactive),> 100 µM (inactive)
[N-]=[N+]=NC[C@H]1OCO[C@H](CN=[N+]=[N-])[C@H]2OCCOCCOc3ccccc3OCCOCCO[C@@H]21,> 100 µM (inactive),> 100 µM (inactive),> 100 µM (inactive),> 100 µM (inactive),> 100 µM (inactive),> 100 µM (inactive),> 100 µM (inactive),> 100 µM (inactive),> 100 µM (inactive),> 100 µM (inactive),> 100,> 100 µM (inactive),> 100 µM (inactive),10.1 µM (inactive),,> 100 µM (inactive),> 100 µM (inactive)
C=C1CC2CCCC12C=O (stereo not drawn),> 10 µM (inactive),> 10 µM (inactive),> 10 µM (inactive),> 10 µM (inactive),> 10 µM (inactive),> 10 µM (inactive),> 10 µM (inactive),> 10 µM (inactive),> 10 µM (inactive),> 10 µM (inactive),> 10,> 10 µM (inactive),> 10 µM (inactive),,,> 10 µM (inactive),> 10 µM (inactive)
COC(OC)(c1ccccc1)C(Br)Br,> 100 µM (inactive),13.9 µM (inactive),31.7 µM (inactive),> 100 µM (inactive),20.2 µM (inactive),16.1 µM (inactive),> 100 µM (inactive),18.6 µM (inactive),> 100 µM (inactive),> 100 µM (inactive),17.1,39.7 µM (inactive),15.8 µM (inactive),> 100 µM (inactive),> 100 µM (inactive),78 µM (inactive),
CCOC(=O)CC[C@H](NC(=O)N[C@H](C)c1ccccc1)C(=O)OCC,84.7 µM (inactive),36.1 µM (inactive),18.6 µM (inactive),> 100 µM (inactive),27.9 µM (inactive),20.1 µM (inactive),73.1 µM (inactive),14.8 µM (inactive),> 100 µM (inactive),89.1 µM (inactive),> 100,,> 100 µM (inactive),29.2 µM (inactive),> 100 µM (inactive),,52.1 µM (inactive)
CN(CCNC(=O)c1c[nH]c2c1Cc1ccccc1-2)CCNC(=O)c1c[nH]c2c1Cc1ccccc1-2,18.2 µM (inactive),30.3 µM (inactive),15.2 µM (inactive),32.1 µM (inactive),17.1 µM (inactive),24.7 µM (inactive),33.3 µM (inactive),30.8 µM (inactive),36.6 µM (inactive),41.5 µM (inactive),30.9,,39.4 µM (inactive),28.6 µM (inactive),> 100 µM (inactive),35.3 µM (inactive),59.3 µM (inactive)
C=C(Br)CN(C#N)CC(=C)Br,> 100 µM (inactive),> 100 µM (inactive),> 100 µM (inactive),> 100 µM (inactive),> 100 µM (inactive),> 100 µM (inactive),> 100 µM (inactive),> 100 µM (inactive),,> 100 µM (inactive),> 100,> 100 µM (inactive),> 100 µM (inactive),> 100 µM (inactive),> 100 µM (inactive),> 100 µM (inactive),> 100 µM (inactive)
O=C1CC(CC(O)[C@@H]2CCCC[C@@H]2O)CC(=O)N1c1ccccc1 (stereo partly drawn),> 100 µM (inactive),> 100 µM (inactive),> 100 µM (inactive),> 100 µM (inactive),> 100 µM (inactive),> 100 µM (inactive),> 100 µM (inactive),> 100 µM (inactive),> 100 µM (inactive),> 100 µM (inactive),> 100,,> 100 µM (inactive),> 100 µM (inactive),> 100 µM (inactive),> 100 µM (inactive),> 100 µM (inactive)
NNC(=O)c1c(SCc2ccccc2)nc2c3ccccc3ccn12,17.1 µM (inactive),14.7 µM (inactive),,30.5 µM (inactive),17.1 µM (inactive),10.9 µM (inactive),22.6 µM (inactive),14.5 µM (inactive),21.4 µM (inactive),21.2 µM (inactive),5.66,18.1 µM (inactive),20.9 µM (inactive),10 µM (inactive),20.5 µM (inactive),80.4 µM (inactive),14.5 µM (inactive)
CCC1CN(C(=O)c2ccccc2)C(Cc2c[nH]c3ccccc23)C(=O)C1CC(=O)OC (stereo not drawn),46 µM (inactive),47.8 µM (inactive),,79.6 µM (inactive),> 100 µM (inactive),27.7 µM (inactive),59.2 µM (inactive),58.6 µM (inactive),> 100 µM (inactive),74.6 µM (inactive),> 100,> 100 µM (inactive),> 100 µM (inactive),35.2 µM (inactive),> 100 µM (inactive),51.8 µM (inactive),> 100 µM (inactive)
Cc1ccc(S(=O)(=O)N(CCN)c2cc3c4c(c2)Oc2cccc5c2C4c2c(cccc2O3)O5)cc1,18.7 µM (inactive),30 µM (inactive),23.8 µM (inactive),11.1 µM (inactive),20.7 µM (inactive),18.5 µM (inactive),> 100 µM (inactive),25.6 µM (inactive),47.2 µM (inactive),36.1 µM (inactive),81.1,,36.5 µM (inactive),> 100 µM (inactive),21.2 µM (inactive),17 µM (inactive),> 10 µM (inactive)
COc1cc2c3c(cc(Cl)nc3c1OC)C(=O)C(=O)N2,14.5 µM (inactive),2.91 µM (inactive),,18.2 µM (inactive),1.79 µM (inactive),2.34 µM (inactive),16.4 µM (inactive),15.6 µM (inactive),16.2 µM (inactive),16.7 µM (inactive),19.2,3.68 µM (inactive),5.85 µM (inactive),13.6 µM (inactive),18 µM (inactive),30.4 µM (inactive),1.6 µM (inactive)
C#CCNC(CS)C(=O)O (stereo not drawn),> 100 µM (inactive),> 100 µM (inactive),,> 100 µM (inactive),> 100 µM (inactive),> 100 µM (inactive),> 100 µM (inactive),> 100 µM (inactive),> 100 µM (inactive),> 100 µM (inactive),> 100,> 100 µM (inactive),> 100 µM (inactive),> 100 µM (inactive),> 100 µM (inactive),> 100 µM (inactive),> 100 µM (inactive)
Cc1nn(C(=O)Cc2ccccc2)c2c1C(c1ccc3ccccc3c1O)SC(=N)N2 (stereo not drawn),> 100 µM (inactive),> 100 µM (inactive),> 100 µM (inactive),> 100 µM (inactive),> 100 µM (inactive),37.8 µM (inactive),> 100 µM (inactive),> 100 µM (inactive),> 100 µM (inactive),> 100 µM (inactive),> 100,> 100 µM (inactive),> 100 µM (inactive),80 µM (inactive),,> 100 µM (inactive),
CN(CCCCCl)P(=O)(OCc1ccc([N+](=O)[O-])o1)OC[C@H]1O[C@@H](n2cc(F)c(=O)[nH]c2=O)C[C@@H]1O (stereo partly drawn),4.34 µM (inactive),12.4 µM (inactive),7.03 µM (inactive),0.352 µM (active),5.85 µM (inactive),0.583 µM (active),12.4 µM (inactive),1.04 µM (active),2.84 µM (inactive),0.989 µM (active),21.6,,17.3 µM (inactive),0.355 µM (active),> 44.5 µM (inactive),0.514 µM (active),12.8 µM (inactive)
